These results are taken from PMC10044245, “Comparative Evaluation of Existing and Rationally Designed Novel Antimicrobial Peptides for Treatment of Skin and Soft Tissue Infections” (Antibiotics, 2023).

For data set [1], the system named is P. aeruginosa. Put plainly: microbe, parasite or virus in culture. Format: cell-based, Pseudomonas aeruginosa. The procedure:
(§1) Quantification of the antimicrobial resistance against various AMPs was carried out by measuring the bacterial growth in the presence of peptides at serial dilutes in 96 well plates in a microplate (96-well plate) reader Infinite® M200 PRO Multimode Microplate Reader (Tecan, Maennedorf, Switzerland) according to our recent reports. All bacterial strains were incubated at 32 °C for 13–18 h at 200 rpm. Optical density measurements (λ = 550 nm) were taken automatically at 10 min intervals. Antimicrobial resistance activity was quantified as the minimum inhibitory concentration (MIC)—the lowest concentration of a peptide which prevents growth of bacterial cells.

In data set [2] the test system is K. pneumonia. Put plainly: microbe, parasite or virus in culture. Format: cell-based, Klebsiella pneumoniae. As for the experimental part: as §1
The test system of data set [3] is E. coli. Put plainly: microbe, parasite or virus in culture. Format: cell-based, Escherichia coli. As for the experimental part:
as §1

Data set [4] has as its system primary human dermal fibroblasts. Format: cell-based. The settings on record: 48 h. The text has this:
(§2) The BALB/c 3T3 murine fibroblast cell line was obtained from ATCC (American Type Culture Collection, Manassas, VA, USA). Primary human dermal fibroblasts were isolated by enzymatic digestion from skin biopsies in the Laboratory of Bioanalytical and Biodosimetry Methods, University of Latvia, in accordance with the approval of the Committee of Research Ethics of the Institute of Cardiology and Regenerative Medicine, University of Latvia. Cells were propagated in DMEM medium (Sigma, Irvine, UK), supplemented with 1% penicillin (100 U/mL)–streptomycin (100 μg/mL), and 10% calf serum (Sigma, St. Louis, MO, USA) for Balb/c 3T3 cell line and fetal bovine serum (Sigma, St. Louis, MO, USA) for primary dermal fibroblasts. All cultivations were performed in a humidified 5% CO2 atmosphere at 37 °C.
(§3) The cytotoxicity of the peptides was tested in the BALB/c3T3 cell line and primary dermal fibroblasts by the neutral red (NR) uptake assay. Cells were seeded in 96-well plates at a density of 5 × 10^3 cells per well. After 24 h of incubation, peptides in a concentration range of 3.9 to 500 μg/mL were added. Dilutions were made in a cell cultivation medium. Cultivation in the presence of extracts was performed for 48 h. Afterwards, plates were washed with phosphate-buffered saline (PBS) (Sigma, Irvine, UK), and a 25 µg/mL NR solution (Sigma, Irvine, UK) diluted in 5%-fetal-calf-serum-containing-media was added. After 3 h, incubation in a humidified 5% CO2 atmosphere at 37 °C, the plate was washed with PBS, and the NR taken up by viable cells was extracted using desorbing fixative (50% ethanol/1% acetic acid/49% water). Absorbance at 540 nm was measured using a microplate reader Tecan Infinite® 200 PRO (Tecan Group Ltd., Mannedorf, Switzerland). Cytotoxicity was expressed as a concentration-dependent reduction in the uptake of NR, compared to the untreated controls and calculated using the following equation: Cell viability (%)=Abs540nm(treatment)−Abs540nm(background)/Abs540nm(untreated control)−Abs540nm(background)×100%

Data set [5] deals with S. aureus. The data set can be described thus: microbe, parasite or virus in culture. Format: cell-based, Staphylococcus aureus. As for the experimental part: as §1
Data set [6] relates to E. faecium. Put plainly: microbe, parasite or virus in culture. Format: cell-based, Enterococcus faecium. As for the experimental part:
as §1

The subject of data set [7] is fresh human blood (red blood cell lysis). The data set can be described thus: Hemolysis assay. Format: cell-based. The settings on record: for hemolysis ratio (HR): red cells of human, 1 h. As for the experimental part: A hemolysis test was performed to assess the hemocompatibility of the peptides. Blood from healthy donors was collected in Monovette vacutainers containing Ethylenediamine tetra-acetic acid (EDTA). Blood was diluted with 0.9% sodium chloride solution supplemented with 10 U/mL heparin (4:5 ratio by volume). Peptides were added to 1.5 mL vials containing fresh 0.49 mL PBS and incubated at 37 °C and 5% CO2 for 30 min, and 10 μL of diluted blood was added to each vial and incubated at 37 °C and 5% CO2 for 1 h. PBS was used as a negative control and deionized water was used as a positive control. After incubation tubes were centrifuged at 3000 rpm for 5 min, the supernatants were collected, and the absorbance was measured at a wavelength of 545 nm in a microplate reader Tecan Infinite® 200 PRO (Tecan Group Ltd., Mannedorf, Switzerland).
The hemolytic ratio (HR) was calculated by the following equation: HR (%)=(Abs(sample)−Abs(negative control))/(Abs (positive control−Abs(negative control))×100%

The subject of data set [8] is C. acnes. Put plainly: microbe, parasite or virus in culture. Format: cell-based, Cutibacterium acnes. As for the experimental part: as §1
The test system of data set [9] is BALB/c 3T3 murine fibroblast cell line. Put plainly: Cytotoxicity, neutral red uptake assay. Format: cell-based.
Description: as §2, §3

Each structure is given as a SMILES string. In brackets after ≈: the same amount, converted by molar mass. Where a SMILES comes first, the peptide text is derived from it.

`CC(C)C[C@H](NC(=O)[C@H](C)NC(=O)[C@H](CCCCN)NC(=O)[C@H](CC(C)C)NC(=O)[C@H](C)NC(=O)[C@H](CCCCN)NC(=O)[C@H](CC(C)C)NC(=O)[C@H](CC(C)C)NC(=O)[C@H](C)NC(=O)[C@H](CCCCN)NC(=O)[C@H](CC(C)C)NC(=O)[C@H](C)NC(=O)[C@H](CCCCN)NC(=O)[C@H](C)NC(=O)[C@@H](N)Cc1ccccc1)C(=O)O` [Oligo10] (H-FAKALKALLKALKAL-OH): the “MIC P. aeruginosa” value in data set [1] came out at 63.0 µg/mL (≈ 39.4 µM). The “MIC K. pneumonia” value in [2] was determined as 63.0 µg/mL (≈ 39.4 µM). Besides, the “MIC E. coli” value in data set [3] came out at 16.0 µg/mL (≈ 10 µM). For the same compound, the “IC50, viability of human primary dermal fibroblasts” value in data set [4] is 241.54 µg/mL. Moreover, the “MIC S. aureus” value in data set [5] stood at 4.0 µg/mL (≈ 2.5 µM). Moreover, the “MIC E. faecium” value in data set [6] worked out at 16.0 µg/mL (≈ 10 µM). In addition, in data set [7], the “concentration with mild hemolytic activity” value is 16000 ng/mL. The “MIC C. acnes” value in [8] amounted to 2.0 µg/mL (≈ 1.25 µM). Besides, the “IC50, viability of Balb/c 3T3 cells” value in data set [9] (48 h) turned out to be 218.21 µg/mL.
Take `CC[C@H](C)[C@H](NC(=O)[C@H](Cc1ccccc1)NC(=O)[C@H](CCCCN)NC(=O)[C@H](CCCCN)NC(=O)[C@H](Cc1ccccc1)NC(=O)[C@H](CCCCN)NC(=O)[C@H](CCCCN)NC(=O)[C@H](C)NC(=O)[C@H](Cc1ccccc1)NC(=O)[C@H](CCCCN)NC(=O)[C@H](CCCCN)NC(=O)[C@@H](NC(=O)[C@@H](N)Cc1ccccc1)[C@@H](C)CC)C(=O)N[C@@H](CCCCN)C(=O)N[C@@H](CCCCN)C(=O)N[C@@H](Cc1ccccc1)C(=O)N[C@@H](C)C(=O)N[C@@H](CCCCN)C(=O)N[C@@H](Cc1ccccc1)C(=O)N[C@@H](C)C(=O)N[C@@H](Cc1ccccc1)C(=O)N[C@@H](C)C(=O)N[C@@H](Cc1ccccc1)C(=O)O` [Peptide R1] (H-FIKKFAKKFKKFIKKFAKFAFAF-OH; N-terminus and C-terminus assumed): the “MIC P. aeruginosa” value in data set [1] was 8.0 µg/mL (≈ 2.8 µM). The “MIC K. pneumonia” value in [2] amounted to 4.0 µg/mL (≈ 1.4 µM). For the same compound, in data set [3], the “MIC E. coli” value came out at 8.0 µg/mL (≈ 2.8 µM). Moreover, the “IC50, viability of human primary dermal fibroblasts” value in data set [4] is 128.07 µg/mL. Also, the “MIC S. aureus” value in data set [5] is 8.0 µg/mL (≈ 2.8 µM). Further, the “MIC E. faecium” value in data set [6] turned out to be 16.0 µg/mL (≈ 5.6 µM). Moreover, in data set [8], the “MIC C. acnes” value turned out to be 2.0 µg/mL (≈ 0.699 µM) and the “Therapeutic Index C. acnes” value was 64.04. The “IC50, viability of Balb/c 3T3 cells” value in data set [9] (48 h) was found to be 63.84 µg/mL. Also, the “decrease of cell viability” value in [9] (Balb/c 3T3, at 15.63 μg/mL and above) is listed as “more than 62%”.
For `CC[C@H](C)[C@H](NC(=O)[C@H](CCCCN)NC(=O)[C@@H](N)CCCCN)C(=O)N[C@@H](C)C(=O)N[C@@H](CCCCN)C(=O)N[C@@H](CCCCN)C(=O)N[C@@H](Cc1ccccc1)C(=O)N[C@@H](Cc1c[nH]c2ccccc12)C(=O)N[C@@H](CCCCN)C(=O)N[C@@H](CCCCN)C(=O)N[C@@H](Cc1ccccc1)C(=O)N[C@@H](Cc1c[nH]c2ccccc12)C(=O)N[C@@H](CCCCN)C(=O)N[C@@H](Cc1ccccc1)C(=O)N[C@@H](Cc1c[nH]c2ccccc12)C(=O)N[C@@H](CCCCN)C(=O)N[C@H](C(=O)N[C@@H](Cc1ccccc1)C(=O)N[C@@H](CCCCN)C(=O)N[C@@H](CCCCN)C(=O)O)[C@@H](C)CC` [Peptide R10] (H-KKIAKKFWKKFWKFWKIFKK-OH), in data set [1], the “MIC P. aeruginosa” value was 2.0 µg/mL (≈ 0.729 µM) and the “Therapeutic Index P. aeruginosa” value was determined as 19.1. In data set [2], the “MIC K. pneumonia” value is 8.0 µg/mL (≈ 2.91 µM) and the “Therapeutic Index K. pneumonia” value came to 4.77. In addition, the “Therapeutic Index E. coli” value in data set [3] was determined as 19.1. For the same compound, the “IC50, viability of human primary dermal fibroblasts” value in data set [4] is 38.19 µg/mL. For the same compound, in [5], the “MIC S. aureus” value turned out to be 4.0 µg/mL (≈ 1.46 µM) and the “Therapeutic Index S. aureus” value is 9.55. Moreover, in [6], the “MIC E. faecium” value came out at 4.0 µg/mL (≈ 1.46 µM) and the “Therapeutic Index E. faecium” value was 9.55. Further, the “hemolytic activity” value in data set [7] is given as “strong hemolytic activity”. In data set [8], the “MIC C. acnes” value stood at 0.5 µg/mL (≈ 0.182 µM) and the “Therapeutic Index C. acnes” value worked out at 76.38. Moreover, the “IC50, viability of Balb/c 3T3 cells” value in data set [9] (48 h) was determined as 86.99 µg/mL.
As to `CC(C)C[C@H](NC(=O)[C@H](CS)NC(=O)[C@H](Cc1ccccc1)NC(=O)[C@@H](N)CCCCN)C(=O)N[C@@H](CCCCN)C(=O)N[C@@H](Cc1ccccc1)C(=O)N[C@@H](CS)C(=O)N[C@@H](Cc1ccccc1)C(=O)N[C@@H](CCCCN)C(=O)NCC(=O)N[C@@H](Cc1ccccc1)C(=O)N[C@@H](CS)C(=O)N[C@@H](Cc1ccccc1)C(=O)N[C@@H](CCCCN)C(=O)N[C@@H](C)C(=O)N[C@@H](CS)C(=O)NCC(=O)N[C@@H](CCCCN)C(=O)O` [Peptide R11] (H-KFCLKFCFKGFCFKACGK-OH; N-terminus and C-terminus assumed), the “Therapeutic Index P. aeruginosa” value in [1] is 1.7. Besides, in data set [2], the “Therapeutic Index K. pneumonia” value turned out to be 1.7. For the same compound, the “Therapeutic Index E. coli” value in data set [3] turned out to be 0.9. In addition, the “Therapeutic Index S. aureus” value in [5] stood at 6.7. In data set [6], the “Therapeutic Index E. faecium” value amounted to 6.7. Moreover, in [7] (32 μg/mL), the “hemolysis ratio (HR)” value is recorded as “below 2%”. Also, in data set [7] (64 μg/mL), the “hemolysis ratio (HR)” value was 2.85–7.03%. Also, in [8], the “MIC C. acnes” value was found to be 0.3 µg/mL (≈ 0.142 µM) and the “Therapeutic Index C. acnes” value is listed as 356.7. This compound gave a concentrations not cytotoxic in data set [9] (Balb/c 3T3, neutral red uptake, 48 h, tested 3.9–500 μg/mL) of 3900 ng/mL.
Consider `CC[C@H](C)[C@H](NC(=O)[C@H](CCCCN)NC(=O)[C@@H](N)CCCCN)C(=O)N[C@@H](C)C(=O)N[C@@H](CCCCN)C(=O)N[C@@H](CCCCN)C(=O)N[C@@H](Cc1ccccc1)C(=O)N[C@@H](Cc1c[nH]c2ccccc12)C(=O)N[C@@H](CCCCN)C(=O)N[C@@H](CCCCN)C(=O)N[C@@H](Cc1ccccc1)C(=O)N[C@@H](Cc1c[nH]c2ccccc12)C(=O)N[C@@H](CCCCN)C(=O)N[C@@H](Cc1ccccc1)C(=O)N[C@@H](Cc1c[nH]c2ccccc12)C(=O)N1CCC[C@H]1C(=O)N[C@@H](CCCCN)C(=O)N[C@@H](Cc1ccccc1)C(=O)N[C@@H](Cc1c[nH]c2ccccc12)C(=O)N[C@@H](CCCCN)C(=O)N[C@H](C(=O)N[C@@H](Cc1ccccc1)C(=O)N[C@@H](CCCCN)C(=O)N[C@@H](CCCCN)C(=O)O)[C@@H](C)CC` [Peptide R14] (H-KKIAKKFWKKFWKFWPKFWKIFKK-OH), for which, in data set [1], the “MIC P. aeruginosa” value amounted to 4.0 µg/mL (≈ 1.21 µM) and the “Therapeutic Index P. aeruginosa” value worked out at 8.8. In [2], the “MIC K. pneumonia” value was 4.0 µg/mL (≈ 1.21 µM) and the “Therapeutic Index K. pneumonia” value is on record as 8.8. In data set [3], the “MIC E. coli” value came to 16.0 µg/mL (≈ 4.84 µM) and the “Therapeutic Index E. coli” value was 2.2. For the same compound, in [5], the “MIC S. aureus” value was determined as 8.0 µg/mL (≈ 2.42 µM) and the “Therapeutic Index S. aureus” value was found to be 4.4. In addition, in [6], the “MIC E. faecium” value came to 8.0 µg/mL (≈ 2.42 µM) and the “Therapeutic Index E. faecium” value amounted to 4.4. Besides, in data set [7], the “hemolytic activity” value was “strong hemolytic activity” and the “hemolysis ratio (HR)” value was above 5%. Further, the “MIC C. acnes” value in [8] turned out to be 1.0 µg/mL (≈ 0.303 µM). In [9] (48 h), the “IC50, viability of Balb/c 3T3 cells” value turned out to be 21.07 µg/mL.
